Assay results taken from the supplement of paper PMC10307832.

Assays:
Experiment in all cases: relative viability (nuclei count vs DMSO), 5 days (fraction); higher = more cells survive
Sunitinib = compound: CCN(CC)CCNC(=O)c1c(C)[nH]c(/C=C2\C(=O)Nc3ccc(F)cc32)c1C [Sunitinib]
Method in brief: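 For viability, nuclei in each treated well were divided by nuclei in vehicle wells and the median across plates was taken. Lung cancer cell lines in 1536-well plates were pinned with five library-drug doses (not always all listed) spaced by √10, cultured 5 days without medium change, and imaged at 4× after Hoechst staining, with plates passing only at control CV below 25% and at least one doubling.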

Sunitinib + Luminespib = compound: CCN(CC)CCNC(=O)c1c(C)[nH]c(/C=C2\C(=O)Nc3ccc(F)cc32)c1C [Sunitinib] + CCNC(=O)c1noc(-c2cc(C(C)C)c(O)cc2O)c1-c1ccc(CN2CCOCC2)cc1 [Luminespib] (partner 0.01 µM)
Method in brief: (§1)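 Five library-drug doses in √10 steps were combined with a fixed anchor-drug dose, or a single drug was given alone, by pin tool to lung cancer cell lines in 1536-well plates the day after seeding. Nuclei were stained and counted after 5 days. Relative viability is the nuclei count in treated wells over that in vehicle wells, taken as the median of duplicate plates.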

Sunitinib + Foretinib = compound: CCN(CC)CCNC(=O)c1c(C)[nH]c(/C=C2\C(=O)Nc3ccc(F)cc32)c1C [Sunitinib] + COc1cc2c(Oc3ccc(NC(=O)C4(C(=O)Nc5ccc(F)cc5)CC4)cc3F)ccnc2cc1OCCCN1CCOCC1 [Foretinib] (partner 0.25 µM)
Method in brief: as §1

Sunitinib + OSI-027 = compound: CCN(CC)CCNC(=O)c1c(C)[nH]c(/C=C2\C(=O)Nc3ccc(F)cc32)c1C [Sunitinib] + COc1cccc2cc(-c3nc([C@H]4CC[C@H](C(=O)O)CC4)n4ncnc(N)c34)[nH]c12 [OSI-027] (partner 0.5 µM)
Method in brief: as §1

Sunitinib + Tozasertib = compound: CCN(CC)CCNC(=O)c1c(C)[nH]c(/C=C2\C(=O)Nc3ccc(F)cc32)c1C [Sunitinib] + Cc1cc(Nc2cc(N3CCN(C)CC3)nc(Sc3ccc(NC(=O)C4CC4)cc3)n2)n[nH]1 [Tozasertib] (partner 0.1 µM)
Method in brief: as §1

Sunitinib + Dasatinib = compound: CCN(CC)CCNC(=O)c1c(C)[nH]c(/C=C2\C(=O)Nc3ccc(F)cc32)c1C [Sunitinib] + Cc1nc(Nc2ncc(C(=O)Nc3c(C)cccc3Cl)s2)cc(N2CCN(CCO)CC2)n1 [Dasatinib] (partner 0.075 µM)
Method in brief: as §1

Sunitinib + Phenformin = compound: CCN(CC)CCNC(=O)c1c(C)[nH]c(/C=C2\C(=O)Nc3ccc(F)cc32)c1C [Sunitinib] + N=C(N)NC(=N)NCCc1ccccc1 [Phenformin] (partner 250 µM)
Method in brief: as §1

Sunitinib + Trametinib = compound: CCN(CC)CCNC(=O)c1c(C)[nH]c(/C=C2\C(=O)Nc3ccc(F)cc32)c1C [Sunitinib] + CC(=O)Nc1cccc(-n2c(=O)n(C3CC3)c(=O)c3c(Nc4ccc(I)cc4F)n(C)c(=O)c(C)c32)c1 [Trametinib] (partner 0.02 µM)
Method in brief: as §1

Sunitinib + Palbociclib = compound: CCN(CC)CCNC(=O)c1c(C)[nH]c(/C=C2\C(=O)Nc3ccc(F)cc32)c1C [Sunitinib] + CC(=O)c1c(C)c2cnc(Nc3ccc(N4CCNCC4)cn3)nc2n(C2CCCC2)c1=O [Palbociclib] (partner 0.5 µM)
Method in brief: as §1

Sunitinib + AZD7762 = compound: CCN(CC)CCNC(=O)c1c(C)[nH]c(/C=C2\C(=O)Nc3ccc(F)cc32)c1C [Sunitinib] + NC(=O)Nc1cc(-c2cccc(F)c2)sc1C(=O)N[C@H]1CCCNC1 [AZD7762] (partner 0.2 µM)
Method in brief: as §1

Sunitinib + Pemetrexed = compound: CCN(CC)CCNC(=O)c1c(C)[nH]c(/C=C2\C(=O)Nc3ccc(F)cc32)c1C [Sunitinib] + Nc1nc2[nH]cc(CCc3ccc(C(=O)N[C@@H](CCC(=O)O)C(=O)O)cc3)c2c(=O)[nH]1 [Pemetrexed] (partner 0.2 µM)
Method in brief: as §1

Sunitinib + Decitabine = compound: CCN(CC)CCNC(=O)c1c(C)[nH]c(/C=C2\C(=O)Nc3ccc(F)cc32)c1C [Sunitinib] + Nc1ncn([C@H]2C[C@H](O)[C@@H](CO)O2)c(=O)n1 [Decitabine] (partner 2 µM)
Method in brief: as §1

Sunitinib + Vorinostat = compound: CCN(CC)CCNC(=O)c1c(C)[nH]c(/C=C2\C(=O)Nc3ccc(F)cc32)c1C [Sunitinib] + O=C(CCCCCCC(=O)Nc1ccccc1)NO [Vorinostat] (partner 1 µM)
Method in brief: as §1

Sunitinib + Olaparib = compound: CCN(CC)CCNC(=O)c1c(C)[nH]c(/C=C2\C(=O)Nc3ccc(F)cc32)c1C [Sunitinib] + O=C(c1cc(Cc2n[nH]c(=O)c3ccccc23)ccc1F)N1CCN(C(=O)C2CC2)CC1 [Olaparib] (partner 8 µM)
Method in brief: as §1

NCI-H1623 showed a relative viability (Sunitinib; 0.02 µM) of 0.98, a relative viability (Sunitinib; 0.06325 µM) of 0.96 and a relative viability (Sunitinib; 0.2 µM) of 0.994. The relative viability (Sunitinib; 2 µM) was 0.916, the relative viability (Sunitinib + Luminespib; first compound 0.02 µM) was 0.545 and the relative viability (Sunitinib + Luminespib; first compound 0.06325 µM) was 0.545. The relative viability (Sunitinib + Luminespib; first compound 0.2 µM) was 0.682, the relative viability (Sunitinib + Luminespib; first compound 0.6325 µM) was 0.611 and the relative viability (Sunitinib + Luminespib; first compound 2 µM) was 0.464. It also gave a relative viability (Sunitinib + Foretinib; first compound 0.02 µM) of 0.83, a relative viability (Sunitinib + Foretinib; first compound 0.06325 µM) of 0.843 and a relative viability (Sunitinib + Foretinib; first compound 0.2 µM) of 0.955. For the same cell line, the relative viability (Sunitinib + Foretinib; first compound 0.6325 µM) was 0.977, the relative viability (Sunitinib + Foretinib; first compound 2 µM) was 0.872 and the relative viability (Sunitinib + OSI-027; first compound 0.02 µM) was 0.45. For the same cell line, the relative viability (Sunitinib + OSI-027; first compound 0.06325 µM) was 0.393, the relative viability (Sunitinib + OSI-027; first compound 0.2 µM) was 0.474 and the relative viability (Sunitinib + OSI-027; first compound 0.6325 µM) was 0.407. It also gave a relative viability (Sunitinib + OSI-027; first compound 2 µM) of 0.358, a relative viability (Sunitinib + Tozasertib; first compound 0.02 µM) of 0.461 and a relative viability (Sunitinib + Tozasertib; first compound 0.06325 µM) of 0.434. It also gave a relative viability (Sunitinib + Tozasertib; first compound 0.2 µM) of 0.446, a relative viability (Sunitinib + Tozasertib; first compound 0.6325 µM) of 0.488 and a relative viability (Sunitinib + Tozasertib; first compound 2 µM) of 0.369. It also gave a relative viability (Sunitinib + Dasatinib; first compound 0.02 µM) of 0.612, a relative viability (Sunitinib + Dasatinib; first compound 0.06325 µM) of 0.507 and a relative viability (Sunitinib + Dasatinib; first compound 0.2 µM) of 0.574. The relative viability (Sunitinib + Dasatinib; first compound 0.6325 µM) was 0.58, the relative viability (Sunitinib + Dasatinib; first compound 2 µM) was 0.543 and the relative viability (Sunitinib + Phenformin; first compound 0.02 µM) was 0.649. The relative viability (Sunitinib + Phenformin; first compound 0.06325 µM) was 0.499, the relative viability (Sunitinib + Phenformin; first compound 0.2 µM) was 0.581 and the relative viability (Sunitinib + Phenformin; first compound 0.6325 µM) was 0.675. The relative viability (Sunitinib + Phenformin; first compound 2 µM) was 0.49.

SW 900 was tested, and the relative viability (Sunitinib; 0.02 µM) was 1.01, the relative viability (Sunitinib; 0.06325 µM) was 1.07 and the relative viability (Sunitinib; 0.2 µM) was 0.932. The relative viability (Sunitinib; 0.6325 µM) was 1.04, the relative viability (Sunitinib; 2 µM) was 0.957 and the relative viability (Sunitinib + Trametinib; first compound 0.02 µM) was 0.718. It also gave a relative viability (Sunitinib + Trametinib; first compound 0.06325 µM) of 0.715, a relative viability (Sunitinib + Trametinib; first compound 0.2 µM) of 0.941 and a relative viability (Sunitinib + Trametinib; first compound 0.6325 µM) of 0.795. It also gave a relative viability (Sunitinib + Trametinib; first compound 2 µM) of 0.766, a relative viability (Sunitinib + Palbociclib; first compound 0.02 µM) of 0.517 and a relative viability (Sunitinib + Palbociclib; first compound 0.06325 µM) of 0.592. The relative viability (Sunitinib + Palbociclib; first compound 0.2 µM) was 0.576, the relative viability (Sunitinib + Palbociclib; first compound 0.6325 µM) was 0.587 and the relative viability (Sunitinib + Palbociclib; first compound 2 µM) was 0.604. It also gave a relative viability (Sunitinib + Luminespib; first compound 0.02 µM) of 0.183, a relative viability (Sunitinib + Luminespib; first compound 0.06325 µM) of 0.22 and a relative viability (Sunitinib + Luminespib; first compound 0.2 µM) of 0.172. It also gave a relative viability (Sunitinib + Luminespib; first compound 0.6325 µM) of 0.192, a relative viability (Sunitinib + Luminespib; first compound 2 µM) of 0.194 and a relative viability (Sunitinib + Foretinib; first compound 0.02 µM) of 0.834. For the same cell line, the relative viability (Sunitinib + Foretinib; first compound 0.06325 µM) was 0.934, the relative viability (Sunitinib + Foretinib; first compound 0.2 µM) was 0.865 and the relative viability (Sunitinib + Foretinib; first compound 0.6325 µM) was 0.966. For the same cell line, the relative viability (Sunitinib + Foretinib; first compound 2 µM) was 0.834, the relative viability (Sunitinib + OSI-027; first compound 0.02 µM) was 0.597 and the relative viability (Sunitinib + OSI-027; first compound 0.06325 µM) was 0.715. It also gave a relative viability (Sunitinib + OSI-027; first compound 0.2 µM) of 0.665, a relative viability (Sunitinib + OSI-027; first compound 0.6325 µM) of 0.584 and a relative viability (Sunitinib + OSI-027; first compound 2 µM) of 0.614. The relative viability (Sunitinib + Tozasertib; first compound 0.02 µM) was 0.432, the relative viability (Sunitinib + Tozasertib; first compound 0.06325 µM) was 0.58 and the relative viability (Sunitinib + Tozasertib; first compound 0.2 µM) was 0.648. It also gave a relative viability (Sunitinib + Tozasertib; first compound 0.6325 µM) of 0.525, a relative viability (Sunitinib + Tozasertib; first compound 2 µM) of 0.328 and a relative viability (Sunitinib + Dasatinib; first compound 0.02 µM) of 0.418. The relative viability (Sunitinib + Dasatinib; first compound 0.06325 µM) was 0.722, the relative viability (Sunitinib + Dasatinib; first compound 0.2 µM) was 0.634 and the relative viability (Sunitinib + Dasatinib; first compound 0.6325 µM) was 0.717. The relative viability (Sunitinib + Dasatinib; first compound 2 µM) was 0.605, the relative viability (Sunitinib + Phenformin; first compound 0.02 µM) was 0.579 and the relative viability (Sunitinib + Phenformin; first compound 0.06325 µM) was 0.79. For the same cell line, the relative viability (Sunitinib + Phenformin; first compound 0.2 µM) was 0.641, the relative viability (Sunitinib + Phenformin; first compound 0.6325 µM) was 0.894 and the relative viability (Sunitinib + Phenformin; first compound 2 µM) was 0.581. For the same cell line, the relative viability (Sunitinib + AZD7762; first compound 0.02 µM) was 0.633, the relative viability (Sunitinib + AZD7762; first compound 0.06325 µM) was 0.676 and the relative viability (Sunitinib + AZD7762; first compound 0.2 µM) was 0.664. The relative viability (Sunitinib + AZD7762; first compound 0.6325 µM) was 0.67, the relative viability (Sunitinib + AZD7762; first compound 2 µM) was 0.648 and the relative viability (Sunitinib + Pemetrexed; first compound 0.02 µM) was 0.466. The relative viability (Sunitinib + Pemetrexed; first compound 0.06325 µM) was 0.495, the relative viability (Sunitinib + Pemetrexed; first compound 0.2 µM) was 0.491 and the relative viability (Sunitinib + Pemetrexed; first compound 0.6325 µM) was 0.5. It also gave a relative viability (Sunitinib + Pemetrexed; first compound 2 µM) of 0.501, a relative viability (Sunitinib + Decitabine; first compound 0.02 µM) of 0.44 and a relative viability (Sunitinib + Decitabine; first compound 0.06325 µM) of 0.364. It also gave a relative viability (Sunitinib + Decitabine; first compound 0.2 µM) of 0.394, a relative viability (Sunitinib + Decitabine; first compound 0.6325 µM) of 0.407 and a relative viability (Sunitinib + Decitabine; first compound 2 µM) of 0.433. For the same cell line, the relative viability (Sunitinib + Vorinostat; first compound 0.02 µM) was 0.516, the relative viability (Sunitinib + Vorinostat; first compound 0.06325 µM) was 0.626 and the relative viability (Sunitinib + Vorinostat; first compound 0.2 µM) was 0.541. The relative viability (Sunitinib + Vorinostat; first compound 0.6325 µM) was 0.604, the relative viability (Sunitinib + Vorinostat; first compound 2 µM) was 0.597 and the relative viability (Sunitinib + Olaparib; first compound 0.02 µM) was 0.794. It also gave a relative viability (Sunitinib + Olaparib; first compound 0.06325 µM) of 1.04, a relative viability (Sunitinib + Olaparib; first compound 0.2 µM) of 0.847 and a relative viability (Sunitinib + Olaparib; first compound 0.6325 µM) of 1.1. It also gave a relative viability (Sunitinib + Olaparib; first compound 2 µM) of 0.945.
